In article PMC8533299, “Synthesis, In Silico Study, and Anti-Cancer Activity of Thiosemicarbazone Derivatives” (Biomedicines, 2021):
In brackets after ≈: the same amount, converted by molar mass.

System: MCF-7 (Human breast cancer)
Experiment: MTT test on MCF-7 cells
Type: cell-based
Conditions: MCF7, till 48 h
Method: The in vitro anticancer activities of the synthesized compounds were conducted using different cancerous and non-cancerous cell lines viz B16-F0 (Mouse melanoma), mouse Ehrlich Ascites Carcinoma (EAC), MCF-7 (Human breast cancer), MCF-10A (Human breast epithelial cells), and NIH/3T3 (Mouse fibroblast cells). All cell lines were procured from the National Centre for Cell Science, Pune, India. The procured cells were cultured in a six-well culture plate with Dulbecco’s Modified Eagle’s Medium (DMEM) supplemented with 10% fetal bovine serum in a humid CO2 incubator with 5% carbon dioxide at 37 °C.
The anti-cancer effect and cytotoxicity of both 3-MBTSc and 4-NBTSc compounds were evaluated against different cancerous (MCF-7, EAC, B16-F0 cells) and noncancerous cells (MCF-10A, NIH-3T3 cells) using MTT test. In brief, the stock solutions of both the tested compounds were prepared by dissolving 1 mg of each compound in 1 mL of DMSO separately. Then, four different concentrations (5, 10, 12, and 20 µg/mL) of both compounds were used during the test along with the negative control. Also, 10 μg/mL of doxorubicin (Dox) was used as the positive control during the experiment. Both untreated and treated cells were incubated for next 24 and 48 h. Then, all the steps during the whole experiment were carried out by our earlier reported procedure. Later, the absorbance values were measured by an ELISA reader (Biorad, Hercules, CA, USA) at 570 nm wavelength using secondary wavelength as a reference at 620 nm and the percentages of cell viability was calculated using the following formula [59, 60, 61]. Cell viability (%)= Mean absorbance of treated cells/Mean absorbance of untreated cells × 100
Based on the cell viability data, the IC50 values of both compounds were calculated on different cancer cells by plotting their corresponding dose-responsive graphs.
The obtained data were statistically analyzed. The descriptive analysis was done and the IC50 values were calculated by fitting the sigmoidal dose responsive graph using GraphPad Prism (GraphPad Software, Inc., La Jolla, CA, USA). […]

- IC50: 3.162 ± 0.018 µg/mL (≈ 5.82 µM)
SMILES: COc1cccc2c1C(=O)c1c(O)c3c(c(O)c1C2=O)C[C@@](O)(C(=O)CO)C[C@@H]3O[C@H]1C[C@H](N)[C@H](O)[C@H](C)O1 [DOX, doxorubicin, reference compound]
